Assay results reported in patent US5281604A, “Angiotensin II receptor blocking 2,3,6-substituted quinazolinones” (American Cyanamid Company, priority 1993, dated 1994).

Molecular target: T1, Angiotensin II Receptor (Bos taurus, UniProt P25104)
T1 construct: beef adrenal glands are processed as follows: fresh adrenal glands received on crushed ice are cleaned of fatty tissues; tissue Maxwell-Cohen (local slaughter house); host or cells: beef adrenal cortex, microsomal membranes (100,000×g pellet)
T1 sequence (P25104 1-359): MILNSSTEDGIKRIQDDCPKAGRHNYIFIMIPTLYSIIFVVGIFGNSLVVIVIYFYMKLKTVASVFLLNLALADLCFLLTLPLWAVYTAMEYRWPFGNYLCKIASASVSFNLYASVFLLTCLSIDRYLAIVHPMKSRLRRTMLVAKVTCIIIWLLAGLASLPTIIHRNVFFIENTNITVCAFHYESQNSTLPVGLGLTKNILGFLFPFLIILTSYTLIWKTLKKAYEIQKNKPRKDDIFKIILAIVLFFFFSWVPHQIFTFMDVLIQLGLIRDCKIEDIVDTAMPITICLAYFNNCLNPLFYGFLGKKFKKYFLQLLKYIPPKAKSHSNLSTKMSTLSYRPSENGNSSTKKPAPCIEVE
Experiment: Receptor Binding Assay: displacement of [125I](Sar1,Ile8)AngII from beef adrenal cortex microsomal membranes
Details: 60 min room temperature
Description: Beef adrenals are obtained from a local slaughter house (Maxwell-Cohen).
[^125 I](Sar^1,Ile^8)AngII, S.A. 2200 Ci/mmole, is purchased from Dupont (NEN®, Boston, Mass.). All unlabeled AngII analogs, Dimethylsulfoxide (DMSO), nucleotides, bovine serum albumin (BSA) are purchased from Sigma Chemical Co., St. Louis, Mo. U.S.A.
Approximately sixteen (16) to twenty (20) beef adrenal glands are processed as follows: fresh adrenal glands received on crushed ice are cleaned of fatty tissues and the tough membranes encapsulating the glands are removed and discarded. The brownish tissue forming the adrenal cortex is scraped off and finely minced with scissors before homogenization. Care is taken to avoid contamination with medullary tissue during dissection. The scraped cortices are suspended in twenty volumes of an ice-cold buffer medium consisting of 10 mM Tris.HCl (pH 7.4 at 22° C.) and containing 1.0 mM EDTA and 0.2M sucrose. Unless otherwise indicated, all subsequent operations are done at 4° C. […] The homogenate is centrifuged first at low speed (3,000×g) for 10 min. The resulting pellet is discarded and the supernatant fluid recentrifuged at 10,000×g for 15 minutes to give a P2 pellet. This P2 pellet is discarded and the liquid phase is carefully decanted off in clean centrifuge tubes and recentrifuged at high speed (100,000×g) for 60 min. The translucent final pellet is harvested and combined in a small volume (20-50.0 ml) of 50.0 mM Tris.HCl buffer, pH 7.2. A 100 ul aliquot is withdrawn and the protein content of the preparation is determined by the Lowry's method (Lowry, O. H., Rosebrough, N. F., Farr, A. L. and Randall, R. J., Protein measurement with Folin phenol reagent. J. Biol. Chem., […], 265-275, 1951). The pelleted membrane is reconstituted in 50.0 mM Tris.HCl buffer containing 0.1 mM of phenylmethylsulfonyl fluoride (PMSF) to give approximately a protein concentration of 2.5 mg per ml of tissue suspension. The membrane preparation is finally aliquoted in 1.0 ml volumes and stored at -70° C. until use in the binding assays.
The binding of [^125 I](Sar^1.Ile^8)AngII to microsomal membranes is initiated by the addition of reconstituted membranes (1:10 vols.) in freshly made 50.0 mM Tris.HCl buffer, pH 7.4 containing 0.25% heat inactivated bovine serum albumin (BSA): 80 ul membrane protein (10 to 20 ug/assay) to wells already containing 100 ul of incubation buffer (as described above) and 20 ul [^125 I](Sar^1,Ile^8)AmgII (Specific Activity, 2200 Ci/mmole) Non-specific binding is measured in the presence of 1.0 uM unlabeled (Sar^1,Ile^8)AngII, added in 20 ul volume. Specific binding for [^125 I](Sar^1,Ile^8) AngII is greater than 90%. In competition studies, experimental compounds are diluted in dimethylsulfoxide (DMSO) and added in 20 ul to wells before the introduction of tissue membranes. This concentration of DMSO is found to have no negative effects on the binding of [^ 125I] (Sar^1,Ile^8) AngII to the membranes. Assays are performed in triplicate. The wells are left undisturbed for 60 min. at room temperature. […] Presoaking the filter sheet in 0.1% polyethyleneimine in normal saline (PEI/Saline) greatly reduces the radioactivity retained by the filter blanks. […] The filters are removed from the filter grid and counted in a Parkard® Cobra Gamma Counder for 1 min. […] The binding data are analyzed by the non-linear interactive "LUNDON-1" program (LUNDON SOFTWARE Inc., Cleveland, Ohio U.S.A.).

With `CCCCc1nc2ccc([C@H]3OC[C@@H]4ON5[C@@H](CCC5(C)C)[C@@H]43)cc2c(=O)n1Cc1ccc(-c2ccccc2-c2nnn[nH]2)cc1` (relative stereo) [Example 8, (3α, 3aα, 8aβ, 8bα)'-2-Butyl-6-(6,6-dimethylocta hydrofuro[3,4-d][1,2-b]isoxazol-3-yl)-3[[2'-(1H-tetrazol-5-yl)[1,1'biphenyl]-4yl]methyl]-4(3H) quinazolinone] the IC50 was 37 nM.
